Experimental data: ChEMBL document CHEMBL1151176, “Isolation of nor-secofriedelanes from the sedative extracts of Galphimia glauca” (2004)

What was measured:
Assay type in all cases: functional
Details in all cases: read-out: ED50 (the source's name)
KB = experiment: Cytotoxicity against human KB cells
HCT-15 = experiment: Cytotoxicity against human HCT15 cells
OVCAR = experiment: Cytotoxicity against human OVCAR cells
[1] = Cytotoxicity against human SQC1 cells

Measured: EC50

COC(=O)[C@@]12CC[C@@]3(C)[C@@H]4C=CC(=O)OC[C@]4([C@@H](C)O)C[C@@H](O)[C@@H]3[C@@]1(C)CC[C@@]1(C)CCC(C)=C[C@]12O [GALPHIMINE C]
> 4 µg/mL: KB | HCT-15 | OVCAR | [1]

C=C1CC[C@]2(C)CC[C@]3(C)[C@H]4[C@H](OC(C)=O)[C@H](O)[C@@]5([C@H](C)O)COC(=O)C=C[C@H]5[C@]4(C)CC[C@@]3(C(=O)OC)[C@]2(O)C1 [GALPHIMINE I]
> 4 µg/mL: KB | HCT-15 | OVCAR | [1]

COC(=O)[C@@]12CC[C@@]3(C)[C@@H]4C=CC(=O)OC[C@]4([C@@H](C)O)[C@@H](OC(C)=O)[C@@H](O)[C@@H]3[C@@]1(C)CC[C@@]1(C)CC=C(C)C[C@]12O [GALPHIMINE E]
> 4 µg/mL: KB | HCT-15 | OVCAR | [1]

C=C1CC[C@]2(C)CC[C@]3(C)[C@H]4[C@H](O)C[C@@]5([C@@H](C)O)COC(=O)C=C[C@H]5[C@]4(C)CC[C@@]3(C(=O)OC)[C@]2(O)C1 [GALPHIMINE F]
> 4 µg/mL: KB | HCT-15 | OVCAR | [1]

COC(=O)[C@@]12CC[C@@]3(C)[C@@H]4C=CC(=O)OC[C@]4([C@H](C)O)[C@@H](O)[C@@H](OC(C)=O)[C@@H]3[C@@]1(C)CC[C@@]1(C)CC=C(C)C[C@]12O [GALPHIMINE D]
> 4 µg/mL: KB | HCT-15 | OVCAR | [1]

COC(=O)[C@@]12CC[C@@]3(C)[C@@H]4C=CC(=O)OC[C@]4([C@@H](C)O)C[C@@H](O)[C@@H]3[C@@]1(C)CC[C@@]1(C)CC=C(C)C[C@]12O [GALPHIMINE B]
> 4 µg/mL: KB | HCT-15 | OVCAR | [1]

C=C1CC[C@]2(C)CC[C@]3(C)[C@H]4[C@H](O)[C@H](O)[C@@]5([C@H](C)O)COC(=O)C=C[C@H]5[C@]4(C)CC[C@@]3(C(=O)OC)[C@]2(O)C1 [GALPHIMINE H]
> 4 µg/mL: KB | HCT-15 | OVCAR | [1]

C=C1CC[C@]2(C)CC[C@]3(C)[C@H]4[C@H](O)[C@H](OC(C)=O)[C@@]5([C@@H](C)O)COC(=O)C=C[C@H]5[C@]4(C)CC[C@@]3(C(=O)OC)[C@]2(O)C1 [GALPHIMINE G]
> 4 µg/mL: KB | HCT-15 | OVCAR | [1]

COC(=O)[C@@]12CC[C@@]3(C)[C@@H]4C=CC(=O)OC[C@]4([C@@H](C)O)[C@@H](O)[C@@H](O)[C@@H]3[C@@]1(C)CC[C@@]1(C)CC=C(C)C[C@]12O [GALPHIMINE A]
> 4 µg/mL: KB | HCT-15 | OVCAR | [1]
